Calls of active or inactive are those of the source.
What was measured:
Type in all cases: functional, cell-based
[1] = system: MCF7; assay: Cytotoxicity against human MCF7 cells assessed as reduction in cell viability at 10 uM by MTT assay
[2] = system: HeLa; assay: Cytotoxicity against human HeLa cells assessed as reduction in cell viability at 10 uM by MTT assay
[3] = system: HepG2; assay: Cytotoxicity against human HepG2 cells assessed as reduction in cell viability at 10 uM by MTT assay
[4] = system: A549; assay: Cytotoxicity against human A549 cells assessed as reduction in cell viability at 10 uM by MTT assay

Measured: Activity

CC(C)=CCc1c(O)ccc2c1OC[C@@H](c1ccc(O)cc1O)C2=O
inactive: all assays above

CC(C)=CCc1cc2c(cc1O)OC[C@H](c1ccc(O)cc1O)[C@@H]2c1cc2c(c(CC=C(C)C)c1O)OC[C@@H](c1ccc(O)cc1O)C2
inactive: all assays above

CC(C)=CCc1cc([C@@H]2CC(=O)c3ccc(O)cc3O2)ccc1O
inactive: all assays above

CC(C)=CCc1c(O)ccc2c1OC[C@H](c1cc([C@@H]3c4ccc(O)c(CC=C(C)C)c4OC[C@@H]3c3ccc(O)cc3O)c(O)cc1O)C2
inactive: all assays above

CC(C)=CCc1cc([C@H]2Oc3cc(O)cc(O)c3C(=O)[C@@H]2O)ccc1O
inactive: all assays above

CC(C)=CCc1c(O)ccc2c1OC[C@H](c1ccc(O)cc1O)C2
inactive: all assays above

COc1ccc(C2COc3cc4c(cc3C2)C=CC(C)(C)O4)c(O)c1 (configuration not stated)
inactive: all assays above

COc1cc(O)ccc1[C@H]1COc2cc(O)ccc2[C@H]1c1cc2c(c(CC=C(C)C)c1O)OC[C@@H](c1ccc(O)cc1O)C2
inactive: all assays above

CC(C)=CCc1cc2c(cc1O)OC[C@H](c1ccc(O)cc1O)[C@@H]2c1cc([C@H]2COc3c(ccc(O)c3CC=C(C)C)C2)c(O)cc1O
inactive: all assays above

CC(C)=CCc1c(O)ccc([C@@H]2COc3c(ccc(O)c3CC=C(C)C)C2=O)c1O
inactive: all assays above

CC(C)(O)CCc1c(O)ccc2c1OC[C@H](c1ccc(O)cc1O)C2
inactive: all assays above

COc1ccc(-c2coc3cc(O)ccc3c2=O)cc1
inactive: all assays above

CC1(C)CCc2c(ccc3c2OC[C@@H](c2ccc(O)cc2O)C3=O)O1
inactive: all assays above

CC(C)=CCc1c(O)ccc([C@@H]2COc3c(ccc(O)c3CC=C(C)C)C2)c1O
inactive: all assays above

CC(C)=CCc1cc([C@H]2Oc3cc(O)ccc3C(=O)[C@@H]2O)ccc1O
inactive: all assays above

CC1(C)CCc2c(ccc3c2OC[C@@H](c2ccc(O)cc2O)C3)O1
inactive: all assays above

CC(C)=CCc1c(O)cc(O)cc1/C=C/c1ccc(O)cc1
inactive: all assays above

COc1ccc(C[C@H]2Oc3cc(O)ccc3/C2=C/C(=O)O)cc1
inactive: all assays above

COc1ccc([C@H]2COc3c(ccc(O)c3CC=C(C)C)C2)c(O)c1
inactive: all assays above

COc1ccc(-c2coc3c(CC=C(C)C)c(O)ccc3c2=O)cc1
inactive: all assays above

O=C(O)/C=C1/c2ccc(O)cc2O[C@@H]1Cc1ccc(O)cc1
inactive: all assays above

COc1ccc([C@@H]2COc3cc(O)ccc3C2)c(O)c1
inactive: all assays above

COc1ccc([C@@H]2COc3c(ccc(O)c3CC=C(C)C)C2=O)c(O)c1
inactive: all assays above
